Molecular target: T1, Trx-6×His-BCL6 (human BCL6 BTB domain covering amino-acid sequence 5-129) (Homo sapiens, UniProt P41182)
T1 construct: made in house
Assay: HTRF assay (BCL6 / BCOR peptide)
Format: binding
Conditions: 1 nM Trx-6×His-BCL6, 300 nM BCOR-AF633 peptide, 2 hours incubation at room temperature; for IC50: read-out: HTRF avg pIC50 (converted)
Protocol: After 2 hours incubation at room temperature the plate was read on a Pherastar FSX (BMG Labtech) plate reader equipped with 337 nm laser excitation filter, a first emission filter at 620 nm and a second emission filter at 665 nm. The % inhibition at each concentration was calculated by normalising FRET ratio to the appropriate high (DMSO with all reagents) and low (DMSO without BCL6) controls.

IC50 | HTRF avg pIC50 | Molecule
1.78 nM |  | [2H]C([2H])([2H])N1CCN(c2ncc(Cl)c(Nc3ccc4c(c3)c3c(c(=O)n4C)OCC(F)(F)[C@H](C4CC4)N3)n2)CC(O)C1 (stereo partly drawn) [Example 12x15-d3, (2S)-10-((5-chloro-2-(6-hydroxy-4-(methyl-d3)-1,4-diazepan-1-yl)pyrimidin-4-yl)amino)-2-cyclopropyl-3,3-difluoro-7-methyl-1,2,3,4-tetrahydro-[1,4]oxazepino[2,3-c]quinolin-6(7H)-one]
46.8 nM |  | CCC1CCN(c2ncc(Cl)c(Nc3ccc4c(c3)c3c(c(=O)n4C)OCC(F)(F)[C@H](C4CC4)N3)n2)C1 (mixture of isomers) [Example 11y, (S)-10-((5-chloro-2-((R)-3-ethylpyrrolidin-1-yl)pyrimidin-4-yl)amino)-2-cyclopropyl-3,3-difluoro-7-methyl-1,2,3,4-tetrahydro-[1,4]oxazepino[2,3-c]quinolin-6(7H)-one:(S)-10-((5-chloro-2-((S)-3-ethylpyrrolidin-1-yl)pyrimidin-4-yl)amino)-2-cyclopropyl-3,3-difluoro-7-methyl-1,2,3,4-tetrahydro-[1,4]oxazepino[2,3-c]quinolin-6(7H)-one (1:1)]
4.79 nM |  | Cn1c(=O)c2c(c3cc(Nc4nc(N5CC(F)C5)ncc4Cl)ccc31)N[C@@H](C1CC1)C(F)(F)CO2 [Example 11q, (S)-10-((5-chloro-2-(3-fluoroazetidin-1-yl)pyrimidin-4-yl)amino)-2-cyclopropyl-3,3-difluoro-7-methyl-1,2,3,4-tetrahydro-[1,4]oxazepino[2,3-c]quinolin-6(7H)-one]
5.37 nM |  | Cn1c(=O)c2c(c3cc(Nc4nc(N5CC(CF)C5)ncc4Cl)ccc31)N[C@@H](C1CC1)C(F)(F)CO2 [Example 12x35, (S)-10-((5-chloro-2-(3-(fluoromethyl)azetidin-1-yl)pyrimidin-4-yl)amino)-2-cyclopropyl-3,3-difluoro-7-methyl-1,2,3,4-tetrahydro-[1,4]oxazepino[2,3-c]quinolin-6(7H)-one]
9.77 nM |  | CCCN(CCO)c1ncc(Cl)c(Nc2ccc3c(c2)c2c(c(=O)n3C)OCC(F)(F)[C@H](C3CC3)N2)n1 [Example 11k, (S)-10-((5-chloro-2-((2-hydroxyethyl)(propyl)amino)pyrimidin-4-yl)amino)-2-cyclopropyl-3,3-difluoro-7-methyl-1,2,3,4-tetrahydro-[1,4]oxazepino[2,3-c]quinolin-6(7H)-one]
55 nM |  | CC1CCCCN(c2ncc(Cl)c(Nc3ccc4c(c3)c3c(c(=O)n4C)OCC(F)(F)[C@H](C4CC4)N3)n2)C1 (mixture of isomers) [Example 11c, (S)-10-((5-chloro-2-((R)-3-methylazepan-1-yl)pyrimidin-4-yl)amino)-2-cyclopropyl-3,3-difluoro-7-methyl-1,2,3,4-tetrahydro-[1,4]oxazepino[2,3-c]quinolin-6(7H)-one:(S)-10-((5-chloro-2-((S)-3-methylazepan-1-yl)pyrimidin-4-yl)amino)-2-cyclopropyl-3,3-difluoro-7-methyl-1,2,3,4-tetrahydro-[1,4]oxazepino[2,3-c]quinolin-6(7H)-one (1:1)]
4.68 nM |  | CN(CCC(C)(C)O)c1ncc(Cl)c(Nc2ccc3c(c2)c2c(c(=O)n3C)OCC(F)(F)[C@H](C3CC3)N2)n1 [Example 9v, (S)-10-((5-chloro-2-((3-hydroxy-3-methylbutyl)(methyl)amino)pyrimidin-4-yl)amino)-2-cyclopropyl-3,3-difluoro-7-methyl-1,2,3,4-tetrahydro-[1,4]oxazepino[2,3-c]quinolin-6(7H)-one]
85.1 nM |  | CC1CN(c2ncc(F)c(Nc3ccc4c(c3)c3c(c(=O)n4C)OCC(F)(F)[C@H](C4CC4)N3)n2)CC(C)C1(F)F (stereo partly drawn) [Example 13p01, (2S)-2-cyclopropyl-10-((2-(4,4-difluoro-3,5-dimethylpiperidin-1-yl)-5-fluoropyrimidin-4-yl)amino)-3,3-difluoro-7-methyl-1,2,3,4-tetrahydro-[1,4]oxazepino[2,3-c]quinolin-6(7H)-one]
19.5 nM |  | CN(C)c1cc(Nc2ccc3c(c2)c2c(c(=O)n3C)OCC(F)(F)[C@H](C3CC3)N2)c(Cl)cn1 [Example 13c12, (S)-2-cyclopropyl-10-((2-(dimethylamino)-5-chloropyridin-4-yl)amino)-3,3-difluoro-7-methyl-1,2,3,4-tetrahydro-[1,4]oxazepino[2,3-c]quinolin-6(7H)-one]
6.61 nM |  | C[C@H]1C[C@@H](O)CN(c2cc(Nc3ccc4c(c3)c3c(c(=O)n4C)OCC(F)(F)[C@H](C4CC4)N3)c(F)cn2)C1 [Example 13f05, (S)-2-cyclopropyl-3,3-difluoro-10-((5-fluoro-2-((3R,5S)-3-hydroxy-5-methylpiperidin-1-yl)pyridin-4-yl)amino)-7-methyl-1,2,3,4-tetrahydro-[1,4]oxazepino[2,3-c]quinolin-6(7H)-one]
7.08 nM |  | Cn1c(=O)c2c(c3cc(Nc4nc(N5CCC(F)(F)CC5CO)ncc4Cl)ccc31)N[C@@H](C1CC1)C(F)(F)CO2 (mixture of isomers) [Example 12x50, (2S)-10-((5-chloro-2-(4,4-difluoro-2-(hydroxymethyl)piperidin-1-yl)pyrimidin-4-yl)amino)-2-cyclopropyl-3,3-difluoro-7-methyl-1,2,3,4-tetrahydro-[1,4]oxazepino[2,3-c]quinolin-6(7H)-one]
3.47 nM |  | Cn1c(=O)c2c(c3cc(Nc4nc(N5CC6(CN(CC7CC7(F)F)C6)C5)ncc4Cl)ccc31)N[C@@H](C1CC1)C(F)(F)CO2 (stereo partly drawn) [Example 9x, (2S)-10-((5-chloro-2-(6-((2,2-difluorocyclopropyl)methyl)-2,6-diazaspiro[3.3]heptan-2-yl)pyrimidin-4-yl)amino)-2-cyclopropyl-3,3-difluoro-7-methyl-1,2,3,4-tetrahydro-[1,4]oxazepino[2,3-c]quinolin-6(7H)-one]
0.871 nM |  | Cn1c(=O)c2c(c3cc(Nc4nc(N5C[C@H](O)C[C@H](O)C5)ncc4Cl)ccc31)N[C@@H](C1CC1)C(F)(F)CO2 [Example 11e, (S)-10-((5-chloro-2-((3R,5S)-3,5-dihydroxypiperidin-1-yl)pyrimidin-4-yl)amino)-2-cyclopropyl-3,3-difluoro-7-methyl-1,2,3,4-tetrahydro-[1,4]oxazepino[2,3-c]quinolin-6(7H)-one]
3.89 nM |  | Cn1c(=O)c2c(c3cc(Nc4nc(N5CC(C)(C#N)C5)ncc4Cl)ccc31)N[C@@H](C1CC1)C(F)(F)CO2 [Example 11s, (S)-1-(5-chloro-4-((2-cyclopropyl-3,3-difluoro-7-methyl-6-oxo-1,2,3,4,6,7-hexahydro-[1,4]oxazepino[2,3-c]quinolin-10-yl)amino)pyrimidin-2-yl)-3-methylazetidine-3-carbonitrile]
11.2 nM |  | CC1CCCN(c2ncc(Cl)c(Nc3ccc4c(c3)c3c(c(=O)n4C)OCC(F)(F)[C@H](C4CC4)N3)n2)C1CO (mixture of isomers) [Example 12x46, (2S)-10-((5-chloro-2-(2-(hydroxymethyl)-3-methylpiperidin-1-yl)pyrimidin-4-yl)amino)-2-cyclopropyl-3,3-difluoro-7-methyl-1,2,3,4-tetrahydro-[1,4]oxazepino[2,3-c]quinolin-6(7H)-one]
 | 8.60 | Cn1c(=O)c2c(c3cc(Nc4nc(N5C[C@@H](O)C[C@@H](F)C5)ncc4Cl)ccc31)N[C@@H](C1CC1)C(F)(F)CO2 [Example 9a, (S)-10-((5-chloro-2-((3S,5R)-3-fluoro-5-hydroxypiperidin-1-yl)pyrimidin-4-yl)amino)-2-cyclopropyl-3,3-difluoro-7-methyl-1,2,3,4-tetrahydro-[1,4]oxazepino[2,3-c]quinolin-6(7H)-one: (S)-10-((5-chloro-2-((3R,5S)-3-fluoro-5-hydroxypiperidin-1-yl)pyrimidin-4-yl)amino)-2-cyclopropyl-3,3-difluoro-7-methyl-1,2,3,4-tetrahydro-[1,4]oxazepino[2,3-c]quinolin-6(7H)-one (1:1)]
14.8 nM |  | Cn1c(=O)c2c(c3cc(Nc4nc(N5CC(C)(C)C5)ncc4Cl)ccc31)N[C@@H](C1CC1)C(F)(F)CO2 [Example 11n, (S)-10-((5-chloro-2-(3,3-dimethylazetidin-1-yl)pyrimidin-4-yl)amino)-2-cyclopropyl-3,3-difluoro-7-methyl-1,2,3,4-tetrahydro-[1,4]oxazepino[2,3-c]quinolin-6(7H)-one]
 | 7.73 | Cc1nccc(Nc2ccc3c(c2)c2c(c(=O)n3C)OCC(F)(F)[C@H](C3CC3)N2)c1Cl [Example 4e, (S)-10-((3-chloro-2-methylpyridin-4-yl)amino)-2-cyclopropyl-3,3-difluoro-7-methyl-1,2,3,4-tetrahydro-[1,4]oxazepino[2,3-c]quinolin-6(7H)-one]
6.76 nM |  | C[C@H]1C[C@@H](O)CN(c2cc(Nc3ccc4c(c3)c3c(c(=O)n4C)OCC(F)(F)[C@H](C4CC4)N3)c(Cl)cn2)C1 [Example 13a, (S)-10-((5-chloro-2-((3R,5S)-3-hydroxy-5-methylpiperidin-1-yl)pyridin-4-yl)amino)-2-cyclopropyl-3,3-difluoro-7-methyl-1,2,3,4-tetrahydro-[1,4]oxazepino[2,3-c]quinolin-6(7H)-one]
 | 8.22 | (S)-10-((5-chloro-2-((3R,4S)-3-(hydroxymethyl)-4-methylpyrrolidin-1-yl)pyrimidin-4-yl)amino)-2-cyclopropyl-3,3-difluoro-7-methyl-1,2,3,4-tetrahydro-[1,4]oxazepino[2,3-c]quinolin-6(7H)-one:(S)-10-((5-chloro-2-((3S,4R)-3-(hydroxymethyl)-4-methylpyrrolidin-1-yl)pyrimidin-4-yl)amino)-2-cyclopropyl-3,3-difluoro-7-methyl-1,2,3,4-tetrahydro-[1,4]oxazepino[2,3-c]quinolin-6(7H)-one (1:1) [Example 11j]

Reference: patent US12528826B2, “[1,4]oxazepino[2,3-c]quinolinone derivatives as BCL6 inhibitors” (Cancer Research Technology Limited, priority 2019, dated 2026)
